Laboratory results as given in paper PMC12514841 (Protein Science : A Publication of the Protein Society, 2025).
≈ marks a conversion by molar mass, not a printed value. Where “and” joins values, the source holds several entries; their conditions need not be identical. Equal entries are not always repeated. Where two headings read alike, the source gives them in different places.

Legend:
wild-type (WT) BlaC [1] = biological target: T1, wild-type (WT) BlaC (Mycobacterium tuberculosis, UniProt P9WKD3); type: biochemical; conditions: pH 6.4
T1 construct: 6xHis tag with TEV cleavage site (N); made in house; host or cells: E. coli BL21 (DE3) pLysS
T1 sequence (P9WKD3 35-307): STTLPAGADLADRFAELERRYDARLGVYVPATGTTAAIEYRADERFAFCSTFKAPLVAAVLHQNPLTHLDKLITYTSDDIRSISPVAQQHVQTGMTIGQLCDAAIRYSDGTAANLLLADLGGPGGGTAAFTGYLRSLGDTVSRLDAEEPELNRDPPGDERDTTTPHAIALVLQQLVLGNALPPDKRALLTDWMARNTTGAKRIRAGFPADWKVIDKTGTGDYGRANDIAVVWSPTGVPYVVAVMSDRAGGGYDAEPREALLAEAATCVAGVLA

wild-type (WT) BlaC [2] = biological target: T1, wild-type (WT) BlaC; set-up: method as in Radojković, Chikunova, et al., [2025]; conditions: 100 mM NaPi, pH 6.4, 25°C, ref Radojković, Chikunova, et al., [2025]; cited from earlier work
[3] = system: E. coli KA797 cells producing wild-type BlaC; assay: Minimum inhibitory concentration determination; type: cell-based; conditions: Escherichia coli
Experimental: (§1) The MIC was determined for E. coli KA797 cells carrying various pUK21‐blaC plasmids with the lac promoter and tat‐signal peptide upstream of the blaC gene (Figure S7) (Radojković, van Ingen, et al., [2025]). Overnight cultures of E. coli were inoculated into fresh LB medium with 50 μg/mL kanamycin and incubated at 37°C until OD600 reached 2. […] The concentration of the selection antibiotic was increased in 2‐fold increments. The plate was incubated for 16 h at 37°C in a Bioscreen C Pro plate reader with continuous shaking, and the OD600 was recorded every 15 min. The MIC was defined as the concentration of the selection antibiotic at which no increase in OD600 was observed.

[4] = system: E. coli KA797 cells producing BlaC I105Y; type: cell-based
[5] = system: E. coli KA797 cells producing BlaC S130G; type: cell-based
[6] = system: E. coli KA797 cells producing BlaC I105Y-S130G; type: cell-based
[7] = system: E. coli KA797 cells producing BlaC I105G; type: cell-based
[8] = system: E. coli KA797 cells producing BlaC G132N; type: cell-based
[9] = system: E. coli KA797 cells producing BlaC I105G-G132N; type: cell-based
wild-type BlaC = biological target: T2, wild-type BlaC (Mycobacterium tuberculosis, UniProt P9WKD3); type: biochemical
T2 construct: 6xHis tag with TEV cleavage site (N); made in house; host or cells: E. coli BL21 (DE3) pLysS
T2 sequence (P9WKD3 35-307): T1 sequence (P9WKD3 35-307)

[10] = system: E. coli KA797 cells, pUK21 vector without blaC gene; assay: Minimum inhibitory concentration determination; type: cell-based; conditions: Escherichia coli, 16 h, 37°C, read-out: MIC carbenicillin
Experimental: as §1

[11] = in combination with carbenicillin at 50 μg/mL

CC1(C)S[C@@H]2[C@H](NC(=O)[C@H](N)c3ccccc3)C(=O)N2[C@H]1C(=O)O [Ampicillin, ampicillin]
KMapp (wild-type (WT) BlaC [1]): 46 ± 12 µM
k cat /K M ^app relative to the wild-type (wild-type (WT) BlaC [1]): 1
kcat (wild-type (WT) BlaC [1]): 9 ± 1 s⁻¹
kcat/KMapp (wild-type (WT) BlaC [1]): 210000 ± 10000 M⁻¹ s⁻¹
kcat/KMapp relative to the wild-type (wild-type (WT) BlaC [1]): 1
K M ^app (wild-type (WT) BlaC [2]): 68 ± 3 µM
k cat (wild-type (WT) BlaC [2]): 14 ± 2 s⁻¹
k cat/K M ^app (wild-type (WT) BlaC [2]): 0.21 ± 0.01 μM^−1 s^−1 and 0.21 ± 0.01 ^a μM^−1 s^−1

O=C(O)[C@H]1/C(=C/CO)O[C@@H]2CC(=O)N21 [Clavulanic acid, clavulanic acid]
MIC ([3]; read-out: MIC clavulanic acid, in combination with carbenicillin at 50 μg/mL): 1 µg/mL
MIC clavulanic acid [4, 11]: 2 µg/mL
MIC clavulanic acid [5, 11]: 4 µg/mL
MIC clavulanic acid [6, 11]: 32 µg/mL
MIC clavulanic acid [7, 11]: 4 µg/mL
MIC clavulanic acid [8, 11]: 1 µg/mL
MIC clavulanic acid [9, 11]: 16 µg/mL
incubation time after which the enzyme reaches its original activity again (wild-type BlaC): 2 h
time to full inhibition of the enzyme (wild-type BlaC): < 5 min

CC1(C)S[C@@H]2[C@H](NC(=O)C(C(=O)O)c3ccccc3)C(=O)N2[C@H]1C(=O)O (stereo partly shown) [Carbenicillin, carbenicillin]
k cat /K M ^app relative to the wild-type (wild-type (WT) BlaC [1]): 1
MIC ([3]; 16 h, 37°C, read-out: MIC carbenicillin): 800 µg/mL (≈ 2110 µM)
MIC [10]: 10 µg/mL (≈ 26.4 µM)
MIC carbenicillin ([4]; 16 h, 37°C): 6400 µg/mL (≈ 16900 µM)
MIC carbenicillin ([5]; 16 h, 37°C): 100 µg/mL (≈ 264 µM)
MIC carbenicillin ([6]; 16 h, 37°C): 800 µg/mL (≈ 2110 µM)
MIC carbenicillin ([7]; 16 h, 37°C): 800 µg/mL (≈ 2110 µM)
MIC times lower than the wild-type [8]: 2 times
MIC carbenicillin ([8]; 16 h, 37°C): 400 µg/mL (≈ 1060 µM)
MIC carbenicillin ([9]; 16 h, 37°C): 800 µg/mL (≈ 2110 µM)
K M ^app (wild-type (WT) BlaC [2]): 5.5 ± 0.7 µM
k cat (wild-type (WT) BlaC [2]): 0.51 ± 0.02 s⁻¹
k cat/K M ^app (wild-type (WT) BlaC [2]): 0.09 ± 0.01 ^a μM^−1 s^−1

O=C(Cc1cccs1)N[C@@H]1C(=O)N2C(C(=O)O)=C(/C=C/c3ccc([N+](=O)[O-])cc3[N+](=O)[O-])CS[C@H]12 [Nitrocefin, nitrocefin]
K M ^app (wild-type (WT) BlaC [1]): 180 ± 70 µM
k cat (wild-type (WT) BlaC [1]): 90 ± 20 s⁻¹
k cat /K M ^app relative to the wild-type (wild-type (WT) BlaC [1]): 1
k cat/K M ^app (wild-type (WT) BlaC [1]): 0.5 ± 0.2 ^a μM^−1 s^−1
